ChEMBL document CHEMBL3885881, “DrugMatrix”

Species on record: Rattus norvegicus
Assay: DrugMatrix - Regimen: Daily Repeat
Type: toxicity, organism-based, Sprague-Dawley
Parameters: regimen Daily Repeat, gender Male, age 6-8 weeks
Conditions: in vivo, po, route oral GAVAGE, […]; for ABSOLUTE BASOPHIL / ABSOLUTE EOSINOPHIL / ABSOLUTE LYMPHOCYTE / ABSOLUTE MONOCYTE / ABSOLUTE SEGMENTED NEUTROPHIL / BASOPHIL / EOSINOPHIL / ERYTHROCYTE COUNT / HEMATOCRIT / HEMOGLOBIN / LEUKOCYTE COUNT / LYMPHOCYTE / MEAN CORPUSCULAR HEMOGLOBIN / MEAN CORPUSCULAR HEMOGLOBIN CONCENTRATION / MEAN CORPUSCULAR VOLUME / MONOCYTE / NEUTROPHIL / NUCLEATED RED BLOOD CELLS / PLATELET COUNT: tissue Blood; for ALANINE AMINOTRANSFERASE / ALBUMIN / ALKALINE PHOSPHATASE / ASPARTATE AMINOTRANSFERASE / BLOOD UREA NITROGEN / CARBON DIOXIDE / CHLORIDE / CHOLESTEROL / CREATINE PHOSPHOKINASE / CREATININE / GLUCOSE / LACTATE DEHYDROGENASE / LIPASE / PHOSPHORUS / POTASSIUM / SODIUM / TOTAL BILIRUBIN / TOTAL PROTEIN / URIC ACID: tissue Plasma
[1] = 0 mg/kg, 72 h, dose level Control, time 3 day
[2] = 0 mg/kg, 120 h, dose level Control, time 5 day
[3] = 11 mg/kg, 72 h, dose level High, time 3 day

## C[C@H]1O[C@@H](O[C@H]2[C@@H](O)C[C@H](O[C@H]3[C@@H](O)C[C@H](O[C@H]4CC[C@@]5(C)[C@H](CC[C@@H]6[C@@H]5C[C@@H](O)[C@]5(C)[C@@H](C7=CC(=O)OC7)CC[C@]65O)C4)O[C@@H]3C)O[C@@H]2C)C[C@H](O)[C@@H]1O [DIGOXIN]
[1]
  ABSOLUTE BASOPHIL: 0 CELLS/uL
  ABSOLUTE EOSINOPHIL: 0 CELLS/uL
  ABSOLUTE LYMPHOCYTE: 8493 CELLS/uL
  ABSOLUTE MONOCYTE: 127 CELLS/uL
  ABSOLUTE SEGMENTED NEUTROPHIL: 896.67 CELLS/uL
  BASOPHIL: 0%
  EOSINOPHIL: 0%
  ERYTHROCYTE COUNT: 5.53 x10E6/uL
  HEMATOCRIT: 34.07%
  HEMOGLOBIN: 13.28 G/DL
  LEUKOCYTE COUNT: 9.52 x10E3/uL
  LYMPHOCYTE: 89.17%
  MEAN CORPUSCULAR HEMOGLOBIN: 24.07 pg
  MEAN CORPUSCULAR HEMOGLOBIN CONCENTRATION: 39.03 G/DL
  MEAN CORPUSCULAR VOLUME: 61.62 fL
  MONOCYTE: 1.33%
  NEUTROPHIL: 9.5%
  NUCLEATED RED BLOOD CELLS: 0.17 /100WBC
  PLATELET COUNT: 1054.17 x10E3/uL
  ALANINE AMINOTRANSFERASE: 77.67 u/L
  ALBUMIN: 4.08 G/DL
  ALKALINE PHOSPHATASE: 404.5 u/L
  ASPARTATE AMINOTRANSFERASE: 83.17 u/L
  BLOOD UREA NITROGEN: 14.33 mg/dL
  CARBON DIOXIDE: 33.17 mmol/L
  CHLORIDE: 101 MEQ/L
  CHOLESTEROL: 76.33 mg/dL
  CREATINE PHOSPHOKINASE: 184.5 u/L
  CREATININE: 0.13 mg/dL
  GLUCOSE: 163.67 mg/dL
  LACTATE DEHYDROGENASE: 130.33 u/L
  LIPASE: 11 u/L
  PHOSPHORUS: 9.27 mg/dL
  POTASSIUM: 6.26 MEQ/L
  SODIUM: 143.57 MEQ/L
  TOTAL BILIRUBIN: 0.18 mg/dL
  TOTAL PROTEIN: 5.82 G/DL
  URIC ACID: 1.38 mg/dL
[2]
  ABSOLUTE BASOPHIL: 0 CELLS/uL
  ABSOLUTE EOSINOPHIL: 0 CELLS/uL
  ABSOLUTE LYMPHOCYTE: 8546.17 CELLS/uL
  ABSOLUTE MONOCYTE: 49.5 CELLS/uL
  ABSOLUTE SEGMENTED NEUTROPHIL: 554.33 CELLS/uL
  BASOPHIL: 0%
  EOSINOPHIL: 0%
  ERYTHROCYTE COUNT: 5.36 x10E6/uL
  HEMATOCRIT: 33.38%
  HEMOGLOBIN: 13.2 G/DL
  LEUKOCYTE COUNT: 9.15 x10E3/uL
  LYMPHOCYTE: 93.17%
  MEAN CORPUSCULAR HEMOGLOBIN: 24.68 pg
  MEAN CORPUSCULAR HEMOGLOBIN CONCENTRATION: 39.58 G/DL
  MEAN CORPUSCULAR VOLUME: 62.38 fL
  MONOCYTE: 0.5%
  NEUTROPHIL: 6.33%
  NUCLEATED RED BLOOD CELLS: 0.17 /100WBC
  PLATELET COUNT: 1099.33 x10E3/uL
  ALANINE AMINOTRANSFERASE: 62.33 u/L
  ALBUMIN: 4.1 G/DL
  ALKALINE PHOSPHATASE: 419 u/L
  ASPARTATE AMINOTRANSFERASE: 83.17 u/L
  BLOOD UREA NITROGEN: 15.5 mg/dL
  CARBON DIOXIDE: 33.17 mmol/L
  CHLORIDE: 98 MEQ/L
  CHOLESTEROL: 58.33 mg/dL
  CREATINE PHOSPHOKINASE: 393.17 u/L
  CREATININE: 0.18 mg/dL
  GLUCOSE: 163 mg/dL
  LACTATE DEHYDROGENASE: 111.5 u/L
  LIPASE: 9.5 u/L
  PHOSPHORUS: 10.02 mg/dL
  POTASSIUM: 5.73 MEQ/L
  SODIUM: 143.65 MEQ/L
  TOTAL BILIRUBIN: 0.2 mg/dL
  TOTAL PROTEIN: 5.85 G/DL
  URIC ACID: 0.78 mg/dL
[3]
  ABSOLUTE BASOPHIL: 0 CELLS/uL
  ABSOLUTE EOSINOPHIL: 0 CELLS/uL
  ABSOLUTE LYMPHOCYTE: 7683.67 CELLS/uL
  ABSOLUTE MONOCYTE: 95.67 CELLS/uL
  ABSOLUTE SEGMENTED NEUTROPHIL: 254 CELLS/uL
  BASOPHIL: 0%
  EOSINOPHIL: 0%
  ERYTHROCYTE COUNT: 6.46 x10E6/uL
  HEMATOCRIT: 39.07%
  HEMOGLOBIN: 14.83 G/DL
  LEUKOCYTE COUNT: 8.03 x10E3/uL
  LYMPHOCYTE: 95.67%
  MEAN CORPUSCULAR HEMOGLOBIN: 22.9 pg
  MEAN CORPUSCULAR HEMOGLOBIN CONCENTRATION: 37.9 G/DL
  MEAN CORPUSCULAR VOLUME: 60.4 fL
  MONOCYTE: 1%
  NEUTROPHIL: 3.33%
  NUCLEATED RED BLOOD CELLS: 0 /100WBC
  PLATELET COUNT: 1036 x10E3/uL
  ALANINE AMINOTRANSFERASE: 99.67 u/L
  ALBUMIN: 4.37 G/DL
  ALKALINE PHOSPHATASE: 416 u/L
  ASPARTATE AMINOTRANSFERASE: 100.33 u/L
  BLOOD UREA NITROGEN: 11.67 mg/dL
  CARBON DIOXIDE: 33 mmol/L
  CHLORIDE: 100 MEQ/L
  CHOLESTEROL: 90.67 mg/dL
  CREATINE PHOSPHOKINASE: 245.33 u/L
  CREATININE: 0.1 mg/dL
  GLUCOSE: 142.33 mg/dL
  LACTATE DEHYDROGENASE: 125.67 u/L
  LIPASE: 10.33 u/L
  PHOSPHORUS: 8.27 mg/dL
  POTASSIUM: 6.27 MEQ/L
  SODIUM: 143.3 MEQ/L
  TOTAL BILIRUBIN: 0.2 mg/dL
  TOTAL PROTEIN: 6.3 G/DL
  URIC ACID: 1 mg/dL
